Source: patent publication US6914045B2, “Glycopeptide antibiotics” (Wyeth Holdings Corporation, priority 2001, dated 2005)
≈ marks a conversion by molar mass, not a printed value.

Columns and labels:
Assay in all cases: in vitro antibacterial evaluation, MIC by broth dilution
Type in all cases: cell-based
Streptococcus sp. = details: broth dilution, 18 hours at 35° C.
How it was run: (§1)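 Following National Committee for Clinical Laboratory Standards recommendations (M7-A2), susceptibility was measured by dilution in Muller-Hinton II […]. Bacteria were seeded at 5×10^5 CFU/mL against compound concentrations from 64 down to 0.06 μg/mL.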

Enterococcus sp. = details: broth dilution, 18 hours at 35° C.
How it was run: as §1

Staphylococcus sp. = details: broth dilution, 18 hours at 35° C.
How it was run: as §1

Escherichia coli = details: 18 hours at 35° C.

For CC(C)CC(=O)OC1C(O)C(OC2C(CO)OC(Oc3ccc(CC4NC(=O)C(C(C)c5ccccc5)NC(=O)CNC(=O)C(CO)NC(=O)C(C(O)C5CNC(=N)N5C5OC(CO)C(O)C(O)C5O)NC(=O)C(C(O)C5CNC(=N)N5)NC4=O)cc3)C(O)C2O)OC2COC3(OC21)C1CC2CC(C1)CC3C2 (stereo not shown) [Example 218], the “MIC Streptococcus agalactiae (GC 4564)” value (Streptococcus sp.) was 0.25 µg/mL (≈ 0.165 µM), the “MIC Streptococcus pneumoniae (ATCC 6301)” value (Streptococcus sp.) was 0.12 µg/mL (≈ 0.0794 µM) and the “MIC Streptococcus pneumoniae (GC 1894)” value (Streptococcus sp.) was under 0.06 µg/mL. For the same molecule, the “MIC Streptococcus pneumoniae (GC 4565)” value (Streptococcus sp.) was 0.12 µg/mL (≈ 0.0794 µM), the “MIC Streptococcus pyogenes (GC 4563)” value (Streptococcus sp.) was 0.5 µg/mL (≈ 0.331 µM) and the “MIC Streptococcus pneumoniae (ATCC 6301)” value (Streptococcus sp.; inoculum 5×10^5 CFU/mL, strain ATCC 6301) was 0.12 µg/mL (≈ 0.0794 µM). The “MIC Streptococcus pneumoniae (GC 1894)” value (Streptococcus sp.; inoculum 5×10^5 CFU/mL, strain GC 1894) was under 0.06 µg/mL, the “MIC Streptococcus pyogenes (GC 4563)” value (Streptococcus sp.; inoculum 5×10^5 CFU/mL, strain GC 4563) was 0.5 µg/mL (≈ 0.331 µM) and the “MIC Streptococcus agalactiae (GC 4564)” value (Streptococcus sp.; inoculum 5×10^5 CFU/mL, strain GC 4564) was 0.25 µg/mL (≈ 0.165 µM). The “MIC Streptococcus pneumoniae (GC 4565)” value (Streptococcus sp.; inoculum 5×10^5 CFU/mL, strain GC 4565) was 0.12 µg/mL (≈ 0.0794 µM), the “MIC Enterococcus avium (GC 4558)” value (Enterococcus sp.) was 4 µg/mL (≈ 2.65 µM) and the “MIC Enterococcus faecalis (ATCC 29212)” value (Enterococcus sp.) was 4 µg/mL (≈ 2.65 µM). For the same molecule, the “MIC Enterococcus faecalis (GC 2242)” value (Enterococcus sp.) was 4 µg/mL (≈ 2.65 µM), the “MIC Enterococcus faecalis (GC 2691)” value (Enterococcus sp.) was 4 µg/mL (≈ 2.65 µM) and the “MIC Enterococcus faecalis (GC 3059)” value (Enterococcus sp.) was 4 µg/mL (≈ 2.65 µM). The “MIC Enterococcus faecalis (GC 4552)” value (Enterococcus sp.) was 4 µg/mL (≈ 2.65 µM), the “MIC Enterococcus faecalis (GC 4553)” value (Enterococcus sp.) was 4 µg/mL (≈ 2.65 µM) and the “MIC Enterococcus faecalis (GC 4554)” value (Enterococcus sp.) was 4 µg/mL (≈ 2.65 µM). The “MIC Enterococcus faecalis (GC 6189)” value (Enterococcus sp.) was 4 µg/mL (≈ 2.65 µM), the “MIC Enterococcus faecium (GC 2243)” value (Enterococcus sp.) was 4 µg/mL (≈ 2.65 µM) and the “MIC Enterococcus faecium (GC 4556)” value (Enterococcus sp.) was 4 µg/mL (≈ 2.65 µM). For the same molecule, the “MIC Enterococcus faecium (GC 4557)” value (Enterococcus sp.) was 4 µg/mL (≈ 2.65 µM), the “MIC Enterococcus faecalis (ATCC 29212)” value (Enterococcus sp.; inoculum 5×10^5 CFU/mL, strain ATCC 29212) was 4 µg/mL (≈ 2.65 µM) and the “MIC Enterococcus faecalis (GC 2242)” value (Enterococcus sp.; inoculum 5×10^5 CFU/mL, strain GC 2242) was 4 µg/mL (≈ 2.65 µM). For the same molecule, the “MIC Enterococcus faecium (GC 2243)” value (Enterococcus sp.; inoculum 5×10^5 CFU/mL, strain GC 2243) was 4 µg/mL (≈ 2.65 µM), the “MIC Enterococcus faecalis (GC 2691)” value (Enterococcus sp.; inoculum 5×10^5 CFU/mL, strain GC 2691) was 4 µg/mL (≈ 2.65 µM) and the “MIC Enterococcus faecalis (GC 3059)” value (Enterococcus sp.; inoculum 5×10^5 CFU/mL, strain GC 3059) was 4 µg/mL (≈ 2.65 µM). The “MIC Enterococcus faecalis (GC 4552)” value (Enterococcus sp.; inoculum 5×10^5 CFU/mL, strain GC 4552) was 4 µg/mL (≈ 2.65 µM), the “MIC Enterococcus faecalis (GC 4553)” value (Enterococcus sp.; inoculum 5×10^5 CFU/mL, strain GC 4553) was 4 µg/mL (≈ 2.65 µM) and the “MIC Enterococcus faecalis (GC 4554)” value (Enterococcus sp.; inoculum 5×10^5 CFU/mL, strain GC 4554) was 4 µg/mL (≈ 2.65 µM). For the same molecule, the “MIC Enterococcus faecium (GC 4556)” value (Enterococcus sp.; inoculum 5×10^5 CFU/mL, strain GC 4556) was 4 µg/mL (≈ 2.65 µM), the “MIC Enterococcus faecium (GC 4557)” value (Enterococcus sp.; inoculum 5×10^5 CFU/mL, strain GC 4557) was 4 µg/mL (≈ 2.65 µM) and the “MIC Enterococcus avium (GC 4558)” value (Enterococcus sp.; inoculum 5×10^5 CFU/mL, strain GC 4558) was 4 µg/mL (≈ 2.65 µM). The “MIC Enterococcus faecalis (GC 6189)” value (Enterococcus sp.; inoculum 5×10^5 CFU/mL, strain GC 6189) was 4 µg/mL (≈ 2.65 µM), the “MIC Staphylococcus aureus (ATCC 29213)” value (Staphylococcus sp.; strain ATCC 29213) was 4 µg/mL (≈ 2.65 µM) and the “MIC Staphylococcus aureus (GC 1131)” value (Staphylococcus sp.; strain GC 1131) was 4 µg/mL (≈ 2.65 µM). For the same molecule, the “MIC Staphylococcus aureus (GC 3051)” value (Staphylococcus sp.; strain GC 3051) was 4 µg/mL (≈ 2.65 µM), the “MIC Staphylococcus aureus (GC 3053)” value (Staphylococcus sp.; strain GC 3053) was 4 µg/mL (≈ 2.65 µM) and the “MIC Staphylococcus aureus (GC 4541)” value (Staphylococcus sp.; strain GC 4541) was 4 µg/mL (≈ 2.65 µM). The “MIC Staphylococcus aureus (GC 4542)” value (Staphylococcus sp.; strain GC 4542) was 4 µg/mL (≈ 2.65 µM), the “MIC Staphylococcus aureus-SMITH (GC 4543)” value (Staphylococcus sp.; strain GC 4543) was 4 µg/mL (≈ 2.65 µM) and the “MIC Staphylococcus aureus (GC 4544)” value (Staphylococcus sp.; strain GC 4544) was 4 µg/mL (≈ 2.65 µM). For the same molecule, the “MIC Staphylococcus aureus (GC 4545)” value (Staphylococcus sp.; strain GC 4545) was 4 µg/mL (≈ 2.65 µM), the “MIC Staphylococcus haemolyticus (GC 4546)” value (Staphylococcus sp.; strain GC 4546) was 4 µg/mL (≈ 2.65 µM) and the “MIC Coagulase Negative Staphylococcus (GC 4547)” value (Staphylococcus sp.; strain GC 4547) was 4 µg/mL (≈ 2.65 µM). The “MIC Coagulase Negative Staphylococcus (GC 4548)” value (Staphylococcus sp.; strain GC 4548) was 4 µg/mL (≈ 2.65 µM), the “MIC Coagulase Negative Staphylococcus (GC 4549)” value (Staphylococcus sp.; strain GC 4549) was 4 µg/mL (≈ 2.65 µM) and the “MIC Coagulase Negative Staphylococcus (GC 4551)” value (Staphylococcus sp.; strain GC 4551) was 8 µg/mL (≈ 5.29 µM). The “MIC Coagulase Negative Staphylococcus (GC 6257)” value (Staphylococcus sp.; strain GC 6257) was 4 µg/mL (≈ 2.65 µM), the “MIC Escherichia coli (ATCC 25922)” value (Escherichia coli) was 64 µg/mL (≈ 42.3 µM) and the “MIC Escherichia coli (GC 4559)” value (Escherichia coli) was over 64 µg/mL. The “MIC Escherichia coli (GC 4560)” value (Escherichia coli) was 8 µg/mL (≈ 5.29 µM).
